Holding throughout (type): in vivo
For test [1], the system named is Puccinia recondita f. sp. tritici. The experiment in a line: Test B: wheat leaf rust, preventive spray on wheat seedlings. To be noted: 50 ppm, 100 = 100% disease control, 0 = no control relative to controls. An excerpt:
General protocol for preparing test suspensions for Tests A-F: the test compounds were first dissolved in acetone in an amount equal to 3% of the final volume and then suspended at the desired concentration (in ppm) in acetone and purified water (50/50 mix by volume) containing 250 ppm of the surfactant PEG400 (polyhydric alcohol esters). The resulting test suspensions were then used in Tests A-F. The test solution was sprayed to the point of run-off on wheat seedlings. The following day the seedlings were inoculated with a spore suspension of Puccinia recondita f. sp. tritici (the causal agent of wheat leaf rust) and incubated in a saturated atmosphere at 20° C. for 24 h, and then moved to a growth chamber at 20° C. for 7 days, after which time disease ratings were made. A rating of 100 indicates 100% disease control and a rating of 0 indicates no disease control (relative to the controls). A dash (-) indicates the compound was not tested.

In test [2] the test system is Blumeria graminis f. sp. tritici. The experiment in a line: Test C: wheat powdery mildew, preventive spray on wheat seedlings. To be noted: 50 ppm, rated after 8 days, 100 = 100% disease control, 0 = no control. From the text:
General protocol for preparing test suspensions for Tests A-F: the test compounds were first dissolved in acetone in an amount equal to 3% of the final volume and then suspended at the desired concentration (in ppm) in acetone and purified water (50/50 mix by volume) containing 250 ppm of the surfactant PEG400 (polyhydric alcohol esters). The resulting test suspensions were then used in Tests A-F. The test suspension was sprayed to the point of run-off on wheat seedlings. The following day the seedlings were inoculated with a spore dust of Blumeria graminis f. sp. tritici, (also known as Erysiphe graminis f. sp. tritici, the causal agent of wheat powdery mildew) and incubated in a growth chamber at 20° C. for 8 days, after which time visual disease ratings were made. A rating of 100 indicates 100% disease control and a rating of 0 indicates no disease control (relative to the controls). A dash (-) indicates the compound was not tested.

The test system of test [3] is Septoria tritici. As to the kind of experiment: Test A: wheat leaf blotch, preventive spray on wheat seedlings. To be noted: 50 ppm, 100 = 100% disease control, 0 = no control relative to controls. An excerpt: General protocol for preparing test suspensions for Tests A-F: the test compounds were first dissolved in acetone in an amount equal to 3% of the final volume and then suspended at the desired concentration (in ppm) in acetone and purified water (50/50 mix by volume) containing 250 ppm of the surfactant PEG400 (polyhydric alcohol esters). The resulting test suspensions were then used in Tests A-F. The test solution was sprayed to the point of run-off on wheat seedlings. The following day the seedlings were inoculated with a spore suspension of Septoria tritici (the causal agent of wheat leaf blotch) and incubated in a saturated atmosphere at 24° C. for 48 h, and then moved to a growth chamber at 20° C. for 17 days, after which time disease ratings were made. A rating of 100 indicates 100% disease control and a rating of 0 indicates no disease control (relative to the controls). A dash (-) indicates the compound was not tested.

Test [4] relates to Alternaria solani. As to the kind of experiment: Test F: tomato early blight, preventive spray on tomato seedlings. Conditions: 50 ppm, 100 = 100% disease control, 0 = no control. An excerpt: (§1) General protocol for preparing test suspensions for Tests A-F: the test compounds were first dissolved in acetone in an amount equal to 3% of the final volume and then suspended at the desired concentration (in ppm) in acetone and purified water (50/50 mix by volume) containing 250 ppm of the surfactant PEG400 (polyhydric alcohol esters). The resulting test suspensions were then used in Tests A-F. The test suspension was sprayed to the point of run-off on tomato seedlings. The following day the seedlings were inoculated with a spore suspension of Alternaria solani (the causal agent of tomato early blight) and incubated in a saturated atmosphere at 27° C. for 48 h, and then moved to a growth chamber at 20° C. for 3 days, after which time visual disease ratings were made. A rating of 100 indicates 100% disease control and a rating of 0 indicates no disease control (relative to the controls). A dash (-) indicates the compound was not tested.

Test [5] deals with Botrytis cinerea. The experiment in a line: Test E: tomato Botrytis, preventive spray on tomato seedlings. To be noted: 50 ppm, 100 = 100% disease control, 0 = no control.
Text: as §1, with “Botrytis cinerea” for “Alternaria solani”, “Botrytis)” for “early blight)”, “20°” for “27°”, “24°” for “20°”

The test system of test [6] is Phakopsora pachyrhizi. As to the kind of experiment: Test D: Asian soybean rust, preventive spray on soybean seedlings. To be noted: 50 ppm, 100 = 100% disease control, 0 = no control. From the text: General protocol for preparing test suspensions for Tests A-F: the test compounds were first dissolved in acetone in an amount equal to 3% of the final volume and then suspended at the desired concentration (in ppm) in acetone and purified water (50/50 mix by volume) containing 250 ppm of the surfactant PEG400 (polyhydric alcohol esters). The resulting test suspensions were then used in Tests A-F.
The test solution was sprayed to the point of run-off on soybean seedlings. The following day the seedlings were inoculated with a spore suspension of Phakopsora pachyrhizi (the causal agent of Asian soybean rust) and incubated in a saturated atmosphere at 22° C. for 24 h and then moved to a growth chamber at 22° C. for 8 days, after which time visual disease ratings were made.
A rating of 100 indicates 100% disease control and a rating of 0 indicates no disease control (relative to the controls). A dash (-) indicates the compound was not tested.

As for `COc1cc(Cl)c(Nc2c(-c3ccc(F)cc3Cl)c(C)nn2C)c([N+](=O)[O-])c1` [Compound 80], in test [1], the “Test B disease control rating (wheat leaf rust)” value (“Test B disease control rating” below) is 100%. Besides, in test [2], the “Test C disease control rating (wheat powdery mildew)” value (“Test C disease control rating” for short) is listed as 97%. In addition, the “Test A disease control rating (wheat leaf blotch)” value (“Test A disease control rating” below) in test [3] amounted to 100%. Besides, the “Test F disease control rating (tomato early blight)” value (“Test F disease control rating” for short) in test [4] turned out to be 98%. The “Test E disease control rating (tomato Botrytis)” value (from here on “Test E disease control rating”) in test [5] is 95%. In addition, the “Test D disease control rating (Asian soybean rust)” value (from here on “Test D disease control rating”) in test [6] is 50%.

For the molecule `Cc1nn(C)c(Nc2c([N+](=O)[O-])ccc(F)c2F)c1-c1ccc(F)cc1Cl` [Compound 7], the “Test B disease control rating” value in test [1] stood at 99%. Besides, in test [2], the “Test C disease control rating” value came to 94%. In addition, the “Test A disease control rating” value in test [3] is 100%. Besides, the “Test F disease control rating” value in test [4] was 89%. The “Test E disease control rating” value in test [5] was found to be 99%. The “Test D disease control rating” value in test [6] came out at 96%.

For the molecule `Cc1cc(F)c(Nc2c(-c3ccc(C#N)cc3Cl)c(C)nn2C)c([N+](=O)[O-])c1` [Compound 127, 3-chloro-4-[5-[(2-fluoro-4-methyl-6-nitrophenyl)amino]-1,3-dimethyl-1H-pyrazol-4-yl]benzonitrile], the pest or weed control at 50 ppm in test [1] (read-out: Test B disease control rating (wheat leaf rust)) came out at 99%; in test [2] (Blumeria graminis, 192 h, read-out: Test C disease control rating (wheat powdery mildew)) it was 92%; in test [3] (Zymoseptoria tritici, read-out: Test A disease control rating (wheat leaf blotch)), 100%; in test [4] (Alternaria solani, read-out: Test F disease control rating (tomato early blight)) it was 100%; in test [5] (Botrytis cinerea, read-out: Test E disease control rating (tomato Botrytis)), 100%; in test [6] (Phakopsora pachyrhizi, read-out: Test D disease control rating (Asian soybean rust)) it was 96%.

As for `Cc1nn(C)c(Nc2c(Cl)cc(F)cc2[N+](=O)[O-])c1-c1ccc(Cl)cc1Cl` [Compound 10], the “Test B disease control rating” value in test [1] is recorded as 99%. The “Test C disease control rating” value in test [2] is 48%. For the same molecule, the “Test A disease control rating” value in test [3] was determined as 100%. The “Test F disease control rating” value in test [4] is recorded as 9%. Moreover, the “Test E disease control rating” value in test [5] turned out to be 68%. The “Test D disease control rating” value in test [6] is 0%.

With `Cc1nn(C)c(Nc2ccc(Cl)cc2[N+](=O)[O-])c1-c1c(F)cccc1Cl` [Compound 22], in test [1], the “Test B disease control rating” value was determined as 93%. In addition, the “Test C disease control rating” value in test [2] amounted to 97%. Also, the “Test A disease control rating” value in test [3] is on record as 100%. Also, the “Test F disease control rating” value in test [4] turned out to be 64%. Moreover, in test [5], the “Test E disease control rating” value is given as 99%. The “Test D disease control rating” value in test [6] is reported as 0%.

On to `Cc1nn(C)c(Nc2c(Cl)cc(Cl)cc2[N+](=O)[O-])c1-c1ccc(F)cc1F` [Compound 101], for which, in test [1], the “Test B disease control rating” value stood at 99%. The “Test C disease control rating” value in test [2] is recorded as 89%. In test [3], the “Test A disease control rating” value is reported as 100%. The “Test F disease control rating” value in test [4] came out at 0%. Besides, the “Test E disease control rating” value in test [5] is 99%. For the same molecule, the “Test D disease control rating” value in test [6] was 44%.

`Cc1nn(C)c(Nc2ccccc2[N+](=O)[O-])c1-c1c(F)cccc1Cl` [Compound 136]: the “Test B disease control rating” value in test [1] amounted to 80%. Further, the “Test C disease control rating” value in test [2] came to 88%. Besides, the “Test A disease control rating” value in test [3] is reported as 100%. Moreover, in test [4], the “Test F disease control rating” value is 0%. In test [5], the “Test E disease control rating” value is given as 99%. The “Test D disease control rating” value in test [6] was found to be 0%.

Take `Cc1ccc(Nc2c(-c3ccc(C#N)cc3Cl)c(C)nn2C)c([N+](=O)[O-])c1` [Compound 14]: the “Test B disease control rating” value in test [1] was determined as 97%. In test [2], the “Test C disease control rating” value came to 83%. Moreover, the “Test A disease control rating” value in test [3] was 100%. Besides, in test [4], the “Test F disease control rating” value was determined as 83%. Further, the “Test E disease control rating” value in test [5] is recorded as 96%. In test [6], the “Test D disease control rating” value came to 48%.

For the molecule `Cc1nn(C)c(Nc2ccc(OCC(F)F)cc2[N+](=O)[O-])c1-c1ccc(F)cc1Cl` [Compound 36], the “Test B disease control rating” value in test [1] is 89%. Moreover, the “Test C disease control rating” value in test [2] stood at 56%. In addition, in test [3], the “Test A disease control rating” value was 100%. In test [4], the “Test F disease control rating” value is 0%. The “Test E disease control rating” value in test [5] is recorded as 100%. In test [6], the “Test D disease control rating” value is reported as 25%.

Take `Cc1nn(C)c(Nc2c(F)cc(Cl)cc2[N+](=O)[O-])c1-c1ccc(C#N)cc1Cl` [Compound 115]: the “Test B disease control rating” value in test [1] was 100%. Besides, the “Test C disease control rating” value in test [2] was 94%. In test [3], the “Test A disease control rating” value is 100%. For the same molecule, the “Test F disease control rating” value in test [4] was 99%. Moreover, the “Test E disease control rating” value in test [5] came to 99%. The “Test D disease control rating” value in test [6] was 77%.

Take `Cc1nn(C)c(Nc2ccc(OC(F)(F)F)cc2[N+](=O)[O-])c1-c1ccc(F)cc1Cl` [Compound 94]: the “Test B disease control rating” value in test [1] turned out to be 0%. In addition, in test [2], the “Test C disease control rating” value was determined as 72%. Further, the “Test A disease control rating” value in test [3] is 73%. The “Test F disease control rating” value in test [4] was 9%. In addition, the “Test E disease control rating” value in test [5] is given as 0%. Further, the “Test D disease control rating” value in test [6] is reported as 73%.

In the case of `Cc1nn(C)c(Nc2ccc(F)cc2[N+](=O)[O-])c1-c1c(Cl)cccc1Cl` [Compound 54], in test [1], the “Test B disease control rating” value stood at 91%. Moreover, the “Test C disease control rating” value in test [2] is 93%. For the same molecule, the “Test A disease control rating” value in test [3] is 100%. Also, the “Test F disease control rating” value in test [4] was 0%. The “Test E disease control rating” value in test [5] amounted to 21%. Also, the “Test D disease control rating” value in test [6] worked out at 0%.

(Values after patent publication US12398107B2, “Fungicidal nitroanilino substituted pyrazoles” (FMC Corporation, priority 2018, dated 2025).)
